This note sets out measurements from patent US10543212B2, “Substituted amines for treating cardiac diseases” (Cardurion Pharmaceuticals, LLC, priority 2017, dated 2020).

Structures can show the parent of a compound that is named as a salt.

The target of assay [1] is T1, Human full-length CaMKIIδ (Homo sapiens, UniProt Q13557).
T1 construct: Human full-length CaMKIIδ (Cat #02-111) was obtained from Carna Biosciences; GST; purchased Carna Biosciences 02-111
Put plainly: Human CaMKII enzyme inhibition assay (radiometric kinase assay). It is filed as biochemical. The note with it: 3 μM compound, 500 nM ATP, 0.5 nM CaMKIIδ; for inhibition at 3 µM: read-out: CaMKIIδ inhibitory activity (%) at 3 μM. The procedure:
In Vitro CaMKIIδ Inhibitory Activity was Evaluated by an Enzyme Assay.
Human CaMKII Enzyme Inhibition Assay
Kinase assay for CaMKIIs was performed using the radiometric assay. Human full-length CaMKIIδ (Cat #02-111) was obtained from Carna Biosciences (Kobe, Japan).
Enzyme reactions were performed in 25 mM HEPES, pH 7.5, with 5 mM magnesium chloride, 1 mM calcium chloride, 10 μg/mL Calmodulin, 2 mM DTT, 0.01% Tween20 and 500 nM ATP (0.2 μCi/well of [γ-33P] ATP) containing 0.5 nM CaMKIIδ and 0.1 μM autophosphorylation peptide (KKALRRQETVDAL)(Toray Research Center).
After incubating the enzyme, peptide, and compounds for 5 min, kinase reactions were initiated by adding ATP, followed by incubation for 60 min at room temperature in a total volume of 50 μL. The reactions were terminated by the addition of 10% trichloroacetic acid (final concentration). The [γ-33P]-phosphorylated proteins were filtered in a Harvest Plate (Merck Millipore) with a Cell Harvester (PerkinElmer) and then free [γ-33P] ATP was washed out with 3% phosphoric acid. The plates were dried, followed by the addition of 40 μl of MicroScintO (PerkinElmer). The radioactivity was counted by a TopCount scintillation counter (PerkinElmer). The signals of the reaction without enzyme were defined as 100% inhibitory activity and those of the reaction without inhibitors as 0% inhibitory activity. In vitro CaMKIIδ inhibitory activity was evaluated by % inhibitory activity of 3 μM compound concentration.

Assay [2] has as its target T2, Full-length, GST-tagged, human CaMKIIδ (Homo sapiens, UniProt Q13557).
T2 construct: Full-Length, Glutathione-S-Transferase(GST)-Tagged, Human CaMKIIδ was purchased from Carna Biosciences; purchased Carna Biosciences 02-111
The assay can be described thus: CaMKIIδ binding assay (TR-FRET with BODIPY-labeled probe ligand). Put shortly: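 TR-FRET probe-displacement binding: 0.5 nM GST-CaMKIIδ with 10 μg/mL calmodulin, 1 mM CaCl2, 0.21 nM Tb-anti-GST Ab and 300 nM BODIPY probe in HEPES pH 7.6 buffer. Eight-point 4-fold dilutions, 1 hr at room temperature. IC50 from logistic fit; 100% inhibition defined by 3 μM parent compound.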
For orientation: Time-resolved FRET reads energy transfer from a long-lived donor to a nearby acceptor.

[3] abbreviates: Table 2, CaMKIIδ binding assay, activity given as class A/B/C.
Where [4] appears, read: Table 2, activity class for CaMKIIδ.
[5] abbreviates: CaMKIIδ binding assay, results of Table 2.

T2 sequence (Q13557 1-478 isoform Q13557-12): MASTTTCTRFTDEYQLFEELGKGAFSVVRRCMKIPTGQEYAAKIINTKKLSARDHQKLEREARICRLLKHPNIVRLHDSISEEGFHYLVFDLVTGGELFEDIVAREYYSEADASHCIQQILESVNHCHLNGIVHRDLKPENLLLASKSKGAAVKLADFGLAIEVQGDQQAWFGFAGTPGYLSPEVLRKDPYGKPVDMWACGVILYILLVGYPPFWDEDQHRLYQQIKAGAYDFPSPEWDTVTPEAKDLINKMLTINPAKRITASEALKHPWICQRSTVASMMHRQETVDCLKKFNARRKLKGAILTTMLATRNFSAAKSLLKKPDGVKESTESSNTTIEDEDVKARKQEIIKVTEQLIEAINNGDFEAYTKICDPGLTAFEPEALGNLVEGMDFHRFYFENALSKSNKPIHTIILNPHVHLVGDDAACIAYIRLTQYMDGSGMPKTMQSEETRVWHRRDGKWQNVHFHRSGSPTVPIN

Consider `COc1cc(C(=O)N2CC3(CN(C)C3)C2)ccc1Nc1ncc(-c2ccc(C#N)c(O[C@@H](C)Cn3cnnn3)c2)cn1` [Example 172, 4-(2-((2-methoxy-4-((6-methyl-2,6-diazaspiro[3.3]hept-2-yl)carbonyl)phenyl)ami-no)pyrimidin-5-yl)-2-(((2S)-1-(1H-tetrazol-1-yl)propan-2-yl)oxy)benzonitrile], for which the inhibition at 3 µM in assay [1] turned out to be 100%. As for `COc1cc(N2CCC(N3CCOCC3)CC2)ccc1Nc1ncc(-c2ccc(C#N)c(O[C@@H](C)Cn3cncn3)c2)cn1` [Example 8, 4-(2-((2-methoxy-4-(4-(morpholin-4-yl)piperidin-1-yl)phenyl)amino)pyrimidin-5-yl)-2-(((2S)-1-(1H-1,2,4-triazol-1-yl)propan-2-yl)oxy)benzonitrile hydrochloride], in assay [1] (hydrochloride), the “CaMKIIδ inhibitory activity (%) at 3 μM” value came to 98%. `CC(C)n1cc(Nc2ncc(-c3ccc(C#N)c(O[C@@H](C)Cn4ncnn4)c3)cn2)cn1` [Example 371, 4-(2-((1-isopropyl-1H-pyrazol-4-yl)amino)pyrimidin-5-yl)-2-(((2S)-1-(2H-tetrazol-2-yl)propan-2-yl)oxy)benzonitrile]: the inhibition at 3 µM in assay [1] worked out at 94%.

In the case of `C[C@@H](Cc1ccn[nH]1)Oc1cc(-c2cnc(Nc3cnn(C)c3)nc2)ccc1C#N` [Example 412, 4-(2-((1-methyl-1H-pyrazol-4-yl)amino)pyrimidin-5-yl)-2-(((2S)-1-(1H-pyrazol-5-yl)propan-2-yl)oxy)benzonitrile], the inhibition at 3 µM in assay [1] worked out at 96%.

On to `COc1cc(N2CCC(N3CCOCC3)CC2)ccc1Nc1ncc(-c2ccc(C#N)c(O[C@@H](C)Cn3ncnn3)c2)cn1` [Example 5, 4-(2-((2-methoxy-4-(4-(morpholin-4-yl)piperidin-1-yl)phenyl)amino)pyrimidin-5-yl)-2-(((2S)-1-(2H-tetrazol-2-yl)propan-2-yl)oxy)benzonitrile], for which the inhibition at 3 µM in assay [1] turned out to be 98%. By IC50 is commonly meant the midpoint of a concentration-inhibition curve. Read a low IC50 as greater potency in that assay. Consider `Cc1ccc(-c2cnc(Nc3cn([C@H]4CC[C@@H](N5CCOCC5)CC4)nc3C(F)(F)F)nc2)cc1O[C@@H](C)Cn1cnnn1` [Example 809, 5-(3-(((S)-1-(1H-tetrazol-1-yl)propan-2-yl)oxy)-4-methylphenyl)-N-(1-(cis-4-morpholinocyclohexyl)-3-(trifluoromethyl)-1H-pyrazol-4-yl)pyrimidin-2-amine], for which the half-maximal inhibitory concentration (IC50) in assay [2] (setting [3]) is 10 to 100 nM. For the molecule `COc1cc(N2CCN(C3CCOCC3)C[C@@H]2C)ccc1Nc1ncc(-c2ccc(Cl)c(O[C@@H](C)Cn3cnnn3)c2)cn1` [Example 654, 5-(3-(((S)-1-(1H-tetrazol-1-yl)propan-2-yl)oxy)-4-chlorophenyl)-N-(2-methoxy-4-((S)-2-methyl-4-(tetrahydro-2H-pyran-4-yl)piperazin-1-yl)phenyl)pyrimidin-2-amine], the concentration for half-maximal inhibition (IC50) in assay [2] (setting [4]) was below 10 nM. In turn, `C[C@@H](Cn1cnnn1)Oc1cc(-c2cnc(Nc3cn([C@H]4CC[C@H](C(=O)O)CC4)nc3C(F)(F)F)nc2)ccc1Cl` [Example 626, trans-(S)-4-(4-((5-(3-((1-(1H-tetrazol-1-yl)propan-2-yl)oxy)-4-chlorophenyl)pyrimidin-2-yl)amino)-3-(trifluoromethyl)-1H-pyrazol-1-yl)cyclohexane-1-carboxylic acid] gave an IC50 in assay [2] (setting [4]) of 10 to 100 nM.

`C[C@@H](Cn1cnnn1)Oc1cc(-c2cnc(Nc3cn(C4CC5(CNC5)C4)nc3OCC(F)(F)F)nc2)ccc1Cl` [Example 925, (S)-5-(3-((1-(1H-tetrazol-1-yl)propan-2-yl)oxy)-4-chlorophenyl)-N-(1-(2-azaspiro[3.3]heptan-6-yl)-3-(2,2,2-trifluoroethoxy)-1H-pyrazol-4-yl)pyrimidin-2-amine] gave a half-maximal inhibitory concentration (IC50) in assay [2] (CaMKIIδ binding assay, activity class per Table 2) below 10 nM. In assay [2] (setting [3]), `CCn1ncc(Nc2ncc(-c3ccc(Cl)c(O[C@@H](C)Cn4cnnn4)c3)cn2)c1C(=O)O` [Example 875, (S)-4-((5-(3-((1-(1H-tetrazol-1-yl)propan-2-yl)oxy)-4-chlorophenyl)pyrimidin-2-yl)amino)-1-ethyl-1H-pyrazole-5-carboxylic acid] displayed a concentration for half-maximal inhibition (IC50) of 10 to 100 nM. On the same count and under the same terms, the same measure for `C[C@H](O)Cn1cc(Nc2ncc(-c3ccc(Cl)c(O[C@@H](C)Cn4cnnn4)c3)cn2)c(OCC(F)(F)F)n1` [Example 833, (S)-1-(4-((5-(3-(((S)-1-(1H-tetrazol-1-yl)propan-2-yl)oxy)-4-chlorophenyl)pyrimidin-2-yl)amino)-3-(2,2,2-trifluoroethoxy)-1H-pyrazol-1-yl)propan-2-ol]: below 10 nM. Molecule `C[C@@H](Cn1cnnn1)Oc1cc(-c2cnc(Nc3ccn(C(C)(C)C)n3)nc2)ccc1Cl` [Example 715, (S)-5-(3-((1-(1H-tetrazol-1-yl)propan-2-yl)oxy)-4-chlorophenyl)-N-(1-(tert-butyl)-1H-pyrazol-3-yl)pyrimidin-2-amine] gave an IC50 in assay [2] (setting [4]) of at least 100 nM.

Regarding `COc1cc2c(cc1Nc1ncc(-c3ccc(Cl)c(O[C@@H](C)Cn4cnnn4)c3)cn1)CN(c1ccnc(C)n1)CC2` [Example 504, (S)-N-(5-(3-((1-(1H-tetrazol-1-yl)propan-2-yl)oxy)-4-chlorophenyl)pyrimidin-2-yl)-6-methoxy-2-(2-methylpyrimidin-4-yl)-1,2,3,4-tetrahydroisoquinolin-7-amine], in assay [2] (setting [5]), the concentration for half-maximal inhibition (IC50) is 10 to 100 nM.

`C[C@@H](Cn1cnnn1)Oc1cc(-c2cnc(Nc3ncc(CO)n3C)nc2)ccc1Cl` [Example 750, (S)-(2-((5-(3-((1-(1H-tetrazol-1-yl)propan-2-yl)oxy)-4-chlorophenyl)pyrimidin-2-yl)amino)-1-methyl-1H-imidazol-5-yl)methanol]: the IC50 in assay [2] (setting [3]) is at least 100 nM. The molecule `C[C@@H](Cn1cnnn1)Oc1cc(-c2cnc(Nc3cn([C@H]4CC[C@H](N5CCOCC5)CC4)nc3OC[C@@H]3CC3(F)F)nc2)ccc1Cl` [Example 869] came in with an IC50 in assay [2] (setting [3]) below 10 nM. On the same count and under the same terms, in the case of `C[C@@H](Cn1cnnn1)Oc1cc(-c2cnc(Nc3cn([C@H]4CC[C@H](N5CC(F)C5)CC4)nc3OC3COC3)nc2)ccc1Cl` [Example 863, 5-(3-(((S)-1-(1H-tetrazol-1-yl)propan-2-yl)oxy)-4-chlorophenyl)-N-(1-(trans-4-(3-fluoroazetidin-1-yl)cyclohexyl)-3-(oxetan-3-yloxy)-1H-pyrazol-4-yl)pyrimidin-2-amine] it was below 10 nM. For the molecule `CCn1cc(Nc2ncc(-c3ccc(Cl)c(O[C@@H](C)Cn4cnnn4)c3)cn2)c(C2CC2)n1` [Example 642, (S)-5-(3-((1-(1H-tetrazol-1-yl)propan-2-yl)oxy)-4-chlorophenyl)-N-(3-cyclopropyl-1-ethyl-1H-pyrazol-4-yl)pyrimidin-2-amine], the concentration for half-maximal inhibition (IC50) in assay [2] (setting [4]) fell in the range of 10 to 100 nM. Same read-out and setting: the same measure for `CCn1cc(Nc2ncc(-c3ccc(Cl)c(O[C@@H](C)Cn4cnnn4)c3)cn2)c(N2CCCC2)n1` [Example 669, (S)-5-(3-((1-(1H-tetrazol-1-yl)propan-2-yl)oxy)-4-chlorophenyl)-N-(1-ethyl-3-(pyrrolidin-1-yl)-1H-pyrazol-4-yl)pyrimidin-2-amine]: 10 to 100 nM. In assay [2] (setting [3]), `C[C@@H](Cn1cnnn1)Oc1cc(-c2cnc(Nc3cn([C@H]4CC[C@@H](N5CCOCC5)CC4)nc3OCC(F)(F)F)nc2)ccc1C#N` [Example 818, 2-(((S)-1-(1H-tetrazol-1-yl)propan-2-yl)oxy)-4-(2-((1-(cis-4-morpholinocyclohexyl)-3-(2,2,2-trifluoroethoxy)-1H-pyrazol-4-yl)amino)pyrimidin-5-yl)benzonitrile] returned a half-maximal inhibitory concentration (IC50) below 10 nM. On the same count and under the same terms, in the case of `C[C@@H](Cn1cnnn1)Oc1cc(-c2cnc(Nc3cc(N4CC(CN5CCOCC5)C4)ccc3F)nc2)ccc1C#N` [Example 762, (S)-2-((1-(1H-tetrazol-1-yl)propan-2-yl)oxy)-4-(2-((2-fluoro-5-(3-(morpholinomethyl)azetidin-1-yl)phenyl)amino)pyrimidin-5-yl)benzonitrile] it was below 10 nM.

With `COc1cc2c(cc1Nc1ncc(-c3ccc(Cl)c(O[C@@H](C)Cn4cnnn4)c3)cn1)CN(C(=O)C(F)(F)F)CC2` [Example 460, (S)-1-(7-((5-(3-((1-(1H-tetrazol-1-yl)propan-2-yl)oxy)-4-chlorophenyl)pyrimidin-2-yl)amino)-6-methoxy-3,4-dihydroisoquinolin-2(1H)-yl)-2,2,2-trifluoroethan-1-one], the 50% inhibitory concentration (IC50) in assay [2] (setting [5]) is at least 100 nM. `C[C@@H](Cn1cnnn1)Oc1cc(-c2cnc(Nc3ccnn3C)nc2)ccc1Cl` [Example 735, (S)-5-(3-((1-(1H-tetrazol-1-yl)propan-2-yl)oxy)-4-chlorophenyl)-N-(1-methyl-1H-pyrazol-5-yl)pyrimidin-2-amine] returned a 50% inhibitory concentration (IC50) in assay [2] (setting [3]) of 10 to 100 nM.
